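A five-concentration, 48-hour dose response in 96-well plates underlies each endpoint, interpolated linearly between surrounding concentrations. At the TGI there is no net growth.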
Tests used:
Experiment in all cases: DTP human tumour cell line panel, 48 h
SF-539 CNS = test system: SF-539 CNS
SN12C renal = test system: SN12C renal
MOLT-4 leukemia = test system: MOLT-4 leukemia
DU-145 prostate = test system: DU-145 prostate
NCI-H226 lung = test system: NCI-H226 lung
LOX IMVI melanoma = test system: LOX IMVI melanoma
NCI-H23 lung = test system: NCI-H23 lung
786-0 renal = test system: 786-0 renal
K-562 leukemia = test system: K-562 leukemia
M14 melanoma = test system: M14 melanoma
NCI/ADR-RES ovarian = test system: NCI/ADR-RES ovarian
SNB-19 CNS = test system: SNB-19 CNS
KM12 colon = test system: KM12 colon
SF-295 CNS = test system: SF-295 CNS
MDA-N = test system: MDA-N
MCF7 breast = test system: MCF7 breast
HOP-62 NSCLC = test system: HOP-62 NSCLC
NCI-H460 lung = test system: NCI-H460 lung
NCI-H522 lung = test system: NCI-H522 lung
SK-MEL-2 melanoma = test system: SK-MEL-2 melanoma
OVCAR-4 ovarian = test system: OVCAR-4 ovarian
MALME-3M melanoma = test system: MALME-3M melanoma
OVCAR-8 ovarian = test system: OVCAR-8 ovarian
A549 NSCLC = test system: A549 NSCLC
HCT-116 colon = test system: HCT-116 colon
COLO 205 colon = test system: COLO 205 colon
IGROV1 ovarian = test system: IGROV1 ovarian
HS 578T breast = test system: HS 578T breast
OVCAR-5 ovarian = test system: OVCAR-5 ovarian
CCRF-CEM leukemia = test system: CCRF-CEM leukemia
T-47D breast = test system: T-47D breast
SF-268 CNS = test system: SF-268 CNS
PC-3 prostate = test system: PC-3 prostate
A498 renal = test system: A498 renal
SW-620 colon = test system: SW-620 colon
UO-31 renal = test system: UO-31 renal
EKVX NSCLC = test system: EKVX NSCLC
OVCAR-3 ovarian = test system: OVCAR-3 ovarian
SK-MEL-28 melanoma = test system: SK-MEL-28 melanoma
SR leukemia = test system: SR leukemia
RXF 393 renal = test system: RXF 393 renal
SK-OV-3 ovarian = test system: SK-OV-3 ovarian
RPMI-8226 leukemia = test system: RPMI-8226 leukemia
UACC-62 melanoma = test system: UACC-62 melanoma
ACHN renal = test system: ACHN renal
TK-10 renal = test system: TK-10 renal
MDA-MB-435 = test system: MDA-MB-435
SK-MEL-5 melanoma = test system: SK-MEL-5 melanoma
UACC-257 melanoma = test system: UACC-257 melanoma
U251 CNS = test system: U251 CNS
CAKI-1 renal = test system: CAKI-1 renal
HCT-15 colon = test system: HCT-15 colon
HL-60(TB) leukemia = test system: HL-60(TB) leukemia
BT-549 breast = test system: BT-549 breast
HT29 colon = test system: HT29 colon
HOP-92 NSCLC = test system: HOP-92 NSCLC
MDA-MB-231 breast = test system: MDA-MB-231 breast
HCC-2998 colon = test system: HCC-2998 colon
SNB-75 CNS = test system: SNB-75 CNS

O=C(O)c1ccc(/C=N/N=C2c3ccccc3-c3ccccc32)cc1 showed a TGI (SF-539 CNS) of 92.3 µM, a TGI (SN12C renal) of over 100 µM and a TGI (MOLT-4 leukemia) of over 100 µM. The TGI (DU-145 prostate) was over 100 µM, the TGI (NCI-H226 lung) was 45.5 µM and the TGI (LOX IMVI melanoma) was over 100 µM. For the same compound, the TGI (NCI-H23 lung) was over 100 µM, the TGI (786-0 renal) was over 100 µM and the TGI (K-562 leukemia) was over 100 µM. For the same compound, the TGI (M14 melanoma) was over 100 µM, the TGI (NCI/ADR-RES ovarian) was over 100 µM and the TGI (SNB-19 CNS) was over 100 µM. For the same compound, the TGI (KM12 colon) was over 100 µM, the TGI (SF-295 CNS) was 32.6 µM and the TGI (MDA-N) was over 100 µM. It also gave a TGI (MCF7 breast) of over 100 µM, a TGI (HOP-62 NSCLC) of over 100 µM and a TGI (NCI-H460 lung) of over 100 µM. It also gave a TGI (NCI-H522 lung) of over 100 µM, a TGI (SK-MEL-2 melanoma) of 75.1 µM and a TGI (OVCAR-4 ovarian) of over 100 µM. The TGI (MALME-3M melanoma) was over 100 µM, the TGI (OVCAR-8 ovarian) was over 100 µM and the TGI (A549 NSCLC) was over 100 µM. The TGI (HCT-116 colon) was over 100 µM, the TGI (COLO 205 colon) was over 100 µM and the TGI (IGROV1 ovarian) was over 100 µM. For the same compound, the TGI (HS 578T breast) was 53.1 µM, the TGI (OVCAR-5 ovarian) was over 100 µM and the TGI (CCRF-CEM leukemia) was over 100 µM. The TGI (T-47D breast) was over 100 µM, the TGI (SF-268 CNS) was 89.3 µM and the TGI (PC-3 prostate) was over 100 µM. The TGI (A498 renal) was over 100 µM, the TGI (SW-620 colon) was over 100 µM and the TGI (UO-31 renal) was over 100 µM. The TGI (EKVX NSCLC) was over 100 µM, the TGI (OVCAR-3 ovarian) was 67.4 µM and the TGI (SK-MEL-28 melanoma) was over 100 µM. The TGI (SR leukemia) was over 100 µM, the TGI (RXF 393 renal) was over 100 µM and the TGI (SK-OV-3 ovarian) was over 100 µM. For the same compound, the TGI (RPMI-8226 leukemia) was over 100 µM, the TGI (UACC-62 melanoma) was over 100 µM and the TGI (ACHN renal) was over 100 µM. It also gave a TGI (TK-10 renal) of over 100 µM, a TGI (MDA-MB-435) of over 100 µM and a TGI (SK-MEL-5 melanoma) of over 100 µM. For the same compound, the TGI (UACC-257 melanoma) was over 100 µM, the TGI (U251 CNS) was over 100 µM and the TGI (CAKI-1 renal) was 93.3 µM. For the same compound, the TGI (HCT-15 colon) was over 100 µM, the TGI (HL-60(TB) leukemia) was over 100 µM and the TGI (BT-549 breast) was over 100 µM. It also gave a TGI (HT29 colon) of over 100 µM, a TGI (HOP-92 NSCLC) of over 100 µM and a TGI (MDA-MB-231 breast) of over 100 µM.

In the case of O=C(NC(OCc1ccccc1)(C(F)(F)F)C(F)(F)F)OCc1ccccc1, the TGI (SF-539 CNS) is reported as 31.1 µM, the TGI (SN12C renal) is reported as 29.4 µM and the TGI (MOLT-4 leukemia) is reported as 38.6 µM. For the same compound, the TGI (DU-145 prostate) was 30.3 µM, the TGI (NCI-H226 lung) was 27.7 µM and the TGI (HCC-2998 colon) was 28.8 µM. For the same compound, the TGI (LOX IMVI melanoma) was 27.6 µM, the TGI (NCI-H23 lung) was 25.8 µM and the TGI (786-0 renal) was 30.1 µM. The TGI (K-562 leukemia) was 36.8 µM, the TGI (M14 melanoma) was 33 µM and the TGI (NCI/ADR-RES ovarian) was 26.3 µM. The TGI (SNB-19 CNS) was 29.2 µM, the TGI (KM12 colon) was 30.2 µM and the TGI (SF-295 CNS) was 31.4 µM. It also gave a TGI (MDA-N) of 28.5 µM, a TGI (MCF7 breast) of 30.1 µM and a TGI (HOP-62 NSCLC) of 28.4 µM. The TGI (SNB-75 CNS) was 29 µM, the TGI (NCI-H460 lung) was 29.6 µM and the TGI (NCI-H522 lung) was 26.5 µM. It also gave a TGI (SK-MEL-2 melanoma) of 28.7 µM, a TGI (MALME-3M melanoma) of 31.9 µM and a TGI (OVCAR-8 ovarian) of 30.1 µM. For the same compound, the TGI (A549 NSCLC) was 28.5 µM, the TGI (HCT-116 colon) was 29.9 µM and the TGI (COLO 205 colon) was 31.6 µM. For the same compound, the TGI (IGROV1 ovarian) was 28.6 µM, the TGI (HS 578T breast) was 31.3 µM and the TGI (OVCAR-5 ovarian) was 27.4 µM. For the same compound, the TGI (CCRF-CEM leukemia) was 34.9 µM, the TGI (T-47D breast) was 29.4 µM and the TGI (SF-268 CNS) was 32.2 µM. It also gave a TGI (PC-3 prostate) of 26.7 µM, a TGI (A498 renal) of 31.6 µM and a TGI (SW-620 colon) of 31.1 µM. It also gave a TGI (UO-31 renal) of 23.3 µM, a TGI (EKVX NSCLC) of 28.7 µM and a TGI (OVCAR-3 ovarian) of 28.6 µM. For the same compound, the TGI (SK-MEL-28 melanoma) was 31.5 µM, the TGI (SR leukemia) was 26.8 µM and the TGI (RXF 393 renal) was 25.3 µM. It also gave a TGI (SK-OV-3 ovarian) of 31.3 µM, a TGI (RPMI-8226 leukemia) of 41.1 µM and a TGI (UACC-62 melanoma) of 27 µM. It also gave a TGI (ACHN renal) of 29.2 µM, a TGI (TK-10 renal) of 20.9 µM and a TGI (MDA-MB-435) of 31 µM. It also gave a TGI (SK-MEL-5 melanoma) of 29.3 µM, a TGI (UACC-257 melanoma) of 27.3 µM and a TGI (U251 CNS) of 27.1 µM. The TGI (CAKI-1 renal) was 27.5 µM, the TGI (HCT-15 colon) was 26.7 µM and the TGI (HL-60(TB) leukemia) was 40.8 µM. It also gave a TGI (BT-549 breast) of 28.7 µM, a TGI (HT29 colon) of 32.2 µM and a TGI (HOP-92 NSCLC) of 27.8 µM. It also gave a TGI (MDA-MB-231 breast) of 32.3 µM.

Compound c1ccc(/C(=N/Nc2ccccn2)c2cccnn2)cc1 has a TGI (SF-539 CNS) of 24.9 µM, a TGI (SN12C renal) of 40.7 µM and a TGI (MOLT-4 leukemia) of 27.1 µM. The TGI (DU-145 prostate) was over 100 µM, the TGI (NCI-H226 lung) was 11.2 µM and the TGI (HCC-2998 colon) was over 100 µM. The TGI (LOX IMVI melanoma) was over 100 µM, the TGI (NCI-H23 lung) was over 50.3 µM and the TGI (786-0 renal) was over 100 µM. The TGI (K-562 leukemia) was over 100 µM, the TGI (M14 melanoma) was 18.5 µM and the TGI (NCI/ADR-RES ovarian) was 13.2 µM. It also gave a TGI (SNB-19 CNS) of over 86.9 µM, a TGI (KM12 colon) of over 100 µM and a TGI (SF-295 CNS) of 29.7 µM. For the same compound, the TGI (MDA-N) was over 100 µM, the TGI (MCF7 breast) was over 93.4 µM and the TGI (HOP-62 NSCLC) was over 63.8 µM. It also gave a TGI (SNB-75 CNS) of 32.7 µM, a TGI (NCI-H460 lung) of over 100 µM and a TGI (NCI-H522 lung) of 4.93 µM. For the same compound, the TGI (SK-MEL-2 melanoma) was over 100 µM, the TGI (OVCAR-4 ovarian) was over 100 µM and the TGI (MALME-3M melanoma) was over 67.9 µM. For the same compound, the TGI (OVCAR-8 ovarian) was 18.9 µM, the TGI (A549 NSCLC) was over 69.8 µM and the TGI (HCT-116 colon) was over 100 µM. The TGI (COLO 205 colon) was over 100 µM, the TGI (IGROV1 ovarian) was 18 µM and the TGI (HS 578T breast) was over 79 µM. For the same compound, the TGI (OVCAR-5 ovarian) was over 100 µM, the TGI (T-47D breast) was over 100 µM and the TGI (SF-268 CNS) was 6.42 µM. For the same compound, the TGI (PC-3 prostate) was over 100 µM, the TGI (A498 renal) was over 100 µM and the TGI (SW-620 colon) was over 78.8 µM. For the same compound, the TGI (UO-31 renal) was 6.02 µM, the TGI (EKVX NSCLC) was 16.7 µM and the TGI (OVCAR-3 ovarian) was over 100 µM. For the same compound, the TGI (SK-MEL-28 melanoma) was over 100 µM, the TGI (SR leukemia) was over 20.8 µM and the TGI (RXF 393 renal) was over 100 µM. The TGI (SK-OV-3 ovarian) was over 47.6 µM, the TGI (RPMI-8226 leukemia) was 17 µM and the TGI (UACC-62 melanoma) was over 52.6 µM. For the same compound, the TGI (ACHN renal) was 24.5 µM, the TGI (TK-10 renal) was over 100 µM and the TGI (MDA-MB-435) was over 100 µM. The TGI (SK-MEL-5 melanoma) was 52.3 µM, the TGI (UACC-257 melanoma) was over 100 µM and the TGI (U251 CNS) was over 100 µM. The TGI (CAKI-1 renal) was over 41.6 µM, the TGI (HCT-15 colon) was over 100 µM and the TGI (HL-60(TB) leukemia) was 71.3 µM. The TGI (BT-549 breast) was over 100 µM, the TGI (HT29 colon) was over 58.8 µM and the TGI (HOP-92 NSCLC) was over 39.5 µM. It also gave a TGI (MDA-MB-231 breast) of over 75.5 µM.

Reference: PubChem BioAssay (NCI)
